# According to US8652525B2, “NSAID delivery from polyarylates” (TYRX, Inc., priority 2008, dated 2014):
# Key:
# [1] = p(10% DT, DTE succinate) solvent cast film, 20% loading
# Description: 1 ml of the buffer was withdrawn periodically and run through the HPLC system described in Example 1.
# Naproxen was formulated at 20% loading in a matrix of p(10% DT, DTE succinate) by solvent casting from methylene chloride and assessed for long-term release.
# post-operative pain = settings: after cesarean delivery; comparator ropivacaine continuous wound infiltration with intravenous (iv) diclofenac; cited from earlier work
# [2] = In vitro release profile of ketoprofen-loaded microparticles using dialysis tubes; assay type: physicochemical; settings: p(10% DT, DTE succinate) microparticles 125-180 μm, 40% loading
# Description: The p(10% DT, DTE succinate) was dried at 40° C. for 3 days and analyzed. 4.8 g of polymer was placed in a plastic beaker and topped with an excess of ethanol. The polymer was allowed to stand in ethanol at 50° C. for 2-3 hours. […] After overnight drying, the polymer/drug mixture was ground using a coffee grinder (overhead design). First, the polymer/drug mixture was cooled in liquid nitrogen. Then the polymer-drug mass was mixed with ground dry ice, added to the container of the grinder and ground at the highest speed for at least 5 min. The whole mixture of dry ice plus polymer/drug powder was transferred into a beaker, covered with Kimwipes™ and placed into a vacuum oven at 40° C. to dry overnight.
# The in vitro release profile of the microparticles was determined using dialysis tubes.
# [3] = given orally for systemic distribution; cited from earlier work
# [4] = Ketoprofen release studies from polyarylate films and microparticles in phosphate buffered saline, HPLC; settings: for ketoprofen release rate: p(10% DT, DTE succinate) film; for ketoprofen released per day: p(10% DT, DTE succinate) solvent cast film
# [5] = p(10% DT, DTE adipate), PBS pH 7.4, 37° C.
# [6] = p(10% DT, DTE succinate) melt processed, compression molded film
structure (smiles),measurement,setting,value
COc1ccc2cc([C@H](C)C(=O)O)ccc2c1 [Naproxen],drug released per day,[1],1 % per day
same,release kinetics,[1],zero order kinetics
same,time until release is complete,[1],about 3 months
O=C(O)Cc1ccccc1Nc1c(Cl)cccc1Cl [diclofenac],efficacy of continuous wound infiltration versus comparator,post-operative pain,more effective
CC(C(=O)O)c1cccc(C(=O)c2ccccc2)c1 (centres unmarked) [ketoprofen],ketoprofen release after 6 days,[2],100%
same,ketoprofen released within 24 hours,[2],About 50%
same,effective plasma concentration range,[3],"1,000-4,000 ng/mL"
same,ketoprofen release mechanism (shape of the release curve),"[4]; DTO polymers, PBS pH 7.4, 37° C.",diffusion controlled
same,ketoprofen release kinetics,"[4]; microparticles milled from compression molded p(10% DT, DTE succinate) film, all sizes",fairly linear release
same,time until ketoprofen release is completed,"[4]; microparticles milled from compression molded p(10% DT, DTE succinate) film, largest particles (>500 microns)",about 60 days
same,time until ketoprofen release is completed,"[4]; microparticles milled from compression molded p(10% DT, DTE succinate) film, smallest particles (212 to 425 microns)",about 40 days
same,ketoprofen release kinetics,"[4]; p(10% DT, DTE adipate), after initial burst, PBS pH 7.4, 37° C.",approximately zero order kinetics
same,duration of ketoprofen release,[4]; [5],2 weeks
same,initial burst of ketoprofen release,[4]; [5],20%
same,ketoprofen release rate,"[4]; HMW polymer (94,000)",about 3 % per day
same,ketoprofen release rate,"[4]; LMW polymer (67,800)",about 5 % per day
same,ketoprofen release kinetics,[4]; [6],zero order kinetics
same,rate of ketoprofen release,[4]; [6],1.3 % per day
same,ketoprofen released per day,"[4]; 10% loading, PBS pH 7.4, 37° C.",about 2 % per day
same,ketoprofen released per day,"[4]; 20% loading, PBS pH 7.4, 37° C.",5 % per day
same,ketoprofen released per day,"[4]; 30% loading, PBS pH 7.4, 37° C.",6 % per day
same,ketoprofen released per day,"[4]; 40% loading, PBS pH 7.4, 37° C.",about 8 % per day
same,ketoprofen release kinetics,"[4]; p(10% DT, DTE succinate) solvent cast films, all four loadings 10%, 20%, 30%, 40%",zero order kinetics
